As usually defined, the IC50 is the midpoint of a concentration-inhibition curve.

The structures appear in SMILES notation.

For 59 compounds, IC50 and Ratio IC50 results are on record in ChEMBL document CHEMBL5390301, “Fragment-Based Screening Identifies New Quinazolinone-Based Inositol Hexakisphosphate Kinase (IP6K) Inhibitors” (ACS Med Chem Lett, 2023).

One test addresses T1, Inositol hexakisphosphate kinase 2 (Homo sapiens, UniProt Q9UHH9).
T1 sequence (Q9UHH9 whole entry): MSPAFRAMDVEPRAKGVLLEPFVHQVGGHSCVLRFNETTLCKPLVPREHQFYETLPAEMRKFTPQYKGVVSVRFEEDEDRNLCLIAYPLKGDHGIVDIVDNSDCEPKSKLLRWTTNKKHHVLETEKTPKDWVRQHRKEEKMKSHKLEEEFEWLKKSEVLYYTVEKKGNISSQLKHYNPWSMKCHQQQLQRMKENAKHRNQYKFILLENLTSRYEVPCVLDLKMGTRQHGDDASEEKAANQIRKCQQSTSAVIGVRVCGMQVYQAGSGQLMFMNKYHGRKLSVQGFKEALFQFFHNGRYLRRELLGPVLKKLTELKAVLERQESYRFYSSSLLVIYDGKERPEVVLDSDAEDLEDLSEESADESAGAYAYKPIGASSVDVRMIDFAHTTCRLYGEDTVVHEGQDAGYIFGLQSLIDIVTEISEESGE
Kind of test: Inhibition of IP6K2 (unknown origin) incubated for 2 hrs in presence of ATP by ADPGlo reagent based assay. Background: ADP-Glo turns the ADP formed in a reaction into a luminescent signal.
In the case of `O=c1[nH]cnc2ccc(C3=Cc4ccccc4C3)cc12`, the 50% inhibitory concentration (IC50) is above 200 µM.

Regarding `O=c1[nH]cnc2ccc(N3CC[C@H]4CCCC[C@@H]4C3)cc12`, the IC50 came out at 91.9 µM.

With `N#Cc1cc(N2CCCC2)cc2c(=O)[nH]cnc12`, the IC50 came to 28.8 µM.

As for `O=c1[nH]cnc2ccc(N3CCCC3)cc12`, the half-inhibitory concentration (IC50) is above 200 µM.

Take `O=c1[nH]cnc2ccc(N3C[C@H]4CCCC[C@H]4C3)cc12`: the IC50 was above 200 µM.

Regarding `O=c1[nH]cnc2ccc(/C=C/c3ccc(F)cc3)cc12`, the concentration for half-maximal inhibition (IC50) was above 200 µM.

For `O=c1[nH]cnc2ccc(CCc3ccccc3)cc12`, the half-maximal inhibitory concentration (IC50) is 51.5 µM.

Take `O=c1[nH]cnc2ccc(C#Cc3ccccc3)cc12`: the IC50 is 96.3 µM.

Turning to `O=c1[nH]cnc2ccc(N3CCc4ccccc4CC3)cc12`, the IC50 is above 200 µM.

Regarding `O=c1[nH]cnc2ccc(/C=C/c3ccccc3)cc12`, the IC50 was 193 µM.

System in a further test: not listed separately
Kind of test: Selectivity index, ratio of IC50 for IP6K2 (unknown origin) to ratio of IC50 for IP6K3 (unknown origin).
As to `O=C(O)c1cccc(-c2oc3cc(O)c(O)cc3c(=O)c2O)c1`, the Ratio IC50 was found to be 5.

The target of a further test is Inositol hexakisphosphate kinase 1 (Homo sapiens, UniProt Q92551). Kind of test: Inhibition of IP6K1 (unknown origin) incubated for 30 min in presence of ATP by ADPGlo reagent based assay.
Chain of Inositol hexakisphosphate kinase 1 (Q92551 whole entry): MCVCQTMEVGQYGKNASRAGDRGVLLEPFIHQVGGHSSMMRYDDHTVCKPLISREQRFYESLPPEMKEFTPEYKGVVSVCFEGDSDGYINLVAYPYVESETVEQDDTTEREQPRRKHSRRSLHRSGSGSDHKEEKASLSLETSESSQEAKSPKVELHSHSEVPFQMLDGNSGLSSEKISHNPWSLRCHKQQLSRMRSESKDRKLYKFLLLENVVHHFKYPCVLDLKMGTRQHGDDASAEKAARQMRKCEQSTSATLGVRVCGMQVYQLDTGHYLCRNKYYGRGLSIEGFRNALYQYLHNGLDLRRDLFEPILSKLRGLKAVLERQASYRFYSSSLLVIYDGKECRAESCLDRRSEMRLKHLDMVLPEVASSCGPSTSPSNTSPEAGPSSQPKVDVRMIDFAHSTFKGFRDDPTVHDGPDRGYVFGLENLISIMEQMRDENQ
Turning to `O=c1[nH]cnc2c(F)cc(N3CCCC3)cc12`, the IC50 was 6.84 µM.

With `Cn1cnc2ccc(/C=C/c3ccccc3)cc2c1=O`, the half-inhibitory concentration (IC50) was determined as 112 µM.

In the case of `O=c1[nH]cnc2ccc(N3CCCC3)c(Br)c12`, the half-maximal inhibitory concentration (IC50) was above 200 µM.

Take `O=S1(=O)NC=Nc2ccc(N3CCCC3)cc21`: the IC50 was above 200 µM.

As for `O=c1[nH]cnc2ccc(/C=C/c3ccccn3)cc12`, the concentration for half-maximal inhibition (IC50) amounted to 32.4 µM.

For `O=c1[nH]cnc2ccc(N3CCc4ccccc4C3)cc12`, the half-maximal inhibitory concentration (IC50) stood at 1.12 µM.

Take `O=c1[nH]cnc2c(Cl)cc(/C=C/c3ccccc3)cc12`: the IC50 was above 200 µM.

In the case of `CN(Cc1ccccc1)c1ccc2nc[nH]c(=O)c2c1`, the IC50 was determined as 15.4 µM.

Consider `Nc1cc2nc[nH]c(=O)c2cc1N1Cc2ccccc2C1`, for which the half-maximal inhibitory concentration (IC50) was found to be 0.757 µM.

For `O=c1[nH]cnc2ccc([N+]3=Cc4ccccc4CC3)cc12`, the IC50 was determined as 2.88 µM.

With `Nc1cc(N2CCCC2)cc2c(=O)[nH]cnc12`, the half-inhibitory concentration (IC50) was 189 µM.

As for `O=C1CCCc2ccc(N3CCCC3)cc21`, the concentration for half-maximal inhibition (IC50) is above 200 µM.

For `O=C1NCCc2ccc(N3CCCC3)cc21`, the half-inhibitory concentration (IC50) was above 200 µM.

For `O=c1[nH]cnc2ccc(N3CCCC3)c(Cl)c12`, the concentration for half-maximal inhibition (IC50) was above 200 µM.

For the compound `O=c1[nH]cnc2c(Cl)cc(N3CCCC3)cc12`, the IC50 came out at 2.25 µM.

Consider `O=c1[nH]cnc2ccc(NC3CCCCC3)cc12`, for which the IC50 was found to be 71.5 µM.

Turning to `Cc1nc2ccc(N3CCCC3)cc2c(=O)[nH]1`, the IC50 was above 200 µM.

As for `O=C(O)c1cc(/C=C/c2ccccc2)cc2c(=O)[nH]cnc12`, the IC50 came out at 67.2 µM.

With `O=c1[nH]cnc2ccc(N3CCC(c4ccccc4)CC3)cc12`, the IC50 worked out at 15.3 µM.

As to `CN(C)c1cccc(-c2cc(O)c3nc[nH]c(=O)c3c2)c1`, the half-inhibitory concentration (IC50) stood at 37.4 µM.

As for `O=c1[nH]cnc2c(Cl)cc(N3CCc4ccccc4CC3)cc12`, the IC50 is above 200 µM.

Consider `Nc1ncnc2ccc(N3CCCC3)cc12`, for which the IC50 was 48.9 µM.

As to `Cc1nc2ccc(/C=C/c3ccccc3)cc2c(=O)[nH]1`, the IC50 was 85.3 µM.

Turning to `CC1(C)C[N+](c2ccc3nc[nH]c(=O)c3c2)=Cc2ccccc21`, the IC50 worked out at 0.595 µM.

In the case of `O=c1[nH]cnc2ncc(/C=C/c3ccccc3)cc12`, the concentration for half-maximal inhibition (IC50) turned out to be 118 µM.

Take `O=c1[nH]c(=O)c2cc(N3CCCC3)ccc2[nH]1`: the half-maximal inhibitory concentration (IC50) was above 200 µM.

For the compound `CN(C)c1ccc2nc[nH]c(=O)c2c1`, the IC50 worked out at 75.4 µM.

Regarding `CN1CCN(c2ccc3nc[nH]c(=O)c3c2)CC1`, the IC50 is above 200 µM.

Turning to `O=c1[nH]cnc2ccc(N3CCCCC3)cc12`, the half-maximal inhibitory concentration (IC50) worked out at 25.9 µM.

With `CN(C)C1CCN(c2ccc3nc[nH]c(=O)c3c2)CC1`, the concentration for half-maximal inhibition (IC50) is above 200 µM.

For the compound `O=c1[nH]cnc2c([N+](=O)[O-])cc(N3CCCC3)cc12`, the IC50 was above 200 µM.

For `O=c1[nH]cnc2cc(N3CCCC3)c(Br)cc12`, the IC50 was determined as 47.6 µM.

Consider `O=c1[nH]cnc2ccc(/C=C/c3ccncc3)cc12`, for which the IC50 came out at 127 µM.

For `O=c1[nH]cnc2cc([N+](=O)[O-])c(N3Cc4ccccc4C3)cc12`, the half-maximal inhibitory concentration (IC50) turned out to be 2.41 µM.

Consider `O=c1[nH]cnc2cnc(N3CCCC3)cc12`, for which the concentration for half-maximal inhibition (IC50) worked out at 94.4 µM.

In the case of `O=c1[nH]cnc2ccc(N3Cc4cccc(F)c4C3)cc12`, the half-maximal inhibitory concentration (IC50) was 1.07 µM.

As for `O=c1[nH]cnc2ccc(NCc3ccccc3)cc12`, the IC50 stood at 30.7 µM.

Turning to `Cc1cc(F)ccc1-c1cc(O)c2nc[nH]c(=O)c2c1`, the 50% inhibitory concentration (IC50) was above 200 µM.

As to `Nc1ccc(N2CCCC2)cc1C(=O)O`, the half-inhibitory concentration (IC50) was determined as 22.7 µM.

For `c1cc2c(cc1N1CCCC1)CNCC2`, the 50% inhibitory concentration (IC50) was above 200 µM.

With `O=c1[nH]cnc2ccc(N3CCCc4ccccc4C3)cc12`, the IC50 was found to be 0.51 µM.

In the case of `O=c1[nH]cnc2ccc(OCc3ccccc3)cc12`, the half-inhibitory concentration (IC50) worked out at 13.3 µM.

Regarding `Nc1nc2ccc(N3CCCC3)cc2c(=O)[nH]1`, the IC50 was above 200 µM.

For `O=c1[nH]cnc2cc(F)c(N3CCCC3)cc12`, the IC50 was found to be 12.2 µM.

Regarding `O=C1CCNc2ccc(/C=C/c3ccccc3)cc21`, the half-maximal inhibitory concentration (IC50) is above 200 µM.

As to `Nc1cc2nc[nH]c(=O)c2cc1N1CCCC1`, the half-inhibitory concentration (IC50) was 34.3 µM.

Turning to `O=c1[nH]cnc2ccc(N3CCCC3)nc12`, the 50% inhibitory concentration (IC50) was above 200 µM.

For `O=c1[nH]cnc2ccc([N+]3=Cc4ccccc4CCC3)cc12`, the IC50 came out at 45.2 µM.
